We go through 16 molecules from patent US20040006236A1, “Diaminopropionic acid derivatives” (priority 1999, published 2004).

Assay [1] concerns the target T1, LFA-1 binding to immobilized ICAM-1 (Homo sapiens, UniProt P05107+P20701).
T1 construct: made in house; host or cells: transfected 293 cells (LFA-1)
As to the kind of experiment: LFA-1/ICAM-1 protein-protein assay (solid-phase ELISA). The following applies: read-out: LFA-1/ICAM-1 Protein-Protein Assay IC50. The procedure:
(a) LFA-1/ICAM-1 screening test: LFA-1/ICAM-1 antagonist activity, defined as the ability of compounds of the invention to block LFA-1 binding to immobilized ICAM-1, was quantitated using a solid-phase ELISA.
(§1) Typically, fusion protein consisting of the entire extracellular domain of human ICAM-1 and the Fc domain of human IgG (5dICAM-Ig) was coated onto 96-well microtiter plates (0.15 μg in 100 μL PBS) overnight at 4° C. The plates were then blocked with 150 μL of 1% BSA/1 mM MnCl2/0.14 M NaCl/20 mM HEPES, pH 7.2 for 1 h at 37° C. and washed 3 times (150 μL each) with Wash Buffer (50 mM Tris, pH 7.4/100 mM NaCl/1 mM MnCl2/0.05% Tween 20). Stock solutions (100 μM in 100% DMSO) of test compounds were diluted 50 fold with 150 μL of Binding Buffer (0.05% BSA/0.05% Tween 20/1 mM MnCl2/0.14 M NaCl/20 mM HEPES, pH 7.2) plus 10% DMSO. […] Fifty μL per well of each dilution was added to the ICAM-1 coated plates, followed by 50 μL per well of membrane-bound LFA-1 (280 ng/mL in Binding Buffer) derived from transfected 293 cells. The plates were shaken vigorously for 1 min (room temperature) and gently for 2 h (37° C.). After incubation, the plates were washed 3 times (150 μL each) with Wash Buffer. Mouse anti-human integrin β2 monoclonal antibody was added (100 μL/well, 1 μg/mL in Binding Buffer) and allowed to incubate for 1 h (37° C.) with gentle agitation. The plates were then washed 3 times with Wash Buffer. HRP-conjugated goat anti-mouse IgG (100 μL/well, 1:1500 dilution in Binding Buffer) was added to each well, followed by incubation for 1 h (37° C.), and concluded by three washes (150 μL each) with Wash Buffer. TMB solution (100 μL per well) was added for color development (10 min). The reaction was stopped by the addition of 100 μL of 1 M H3PO4 to each well. The plates were then read at 450 nm. The inhibitory activities of test compounds were determined by the IC50s.
as §1, with “LFA-1/ICAM-1 antagonist activity, defined as the ability to block LFA-1 binding to immobilized ICAM-1, was quantitated using a solid-phase ELISA. Typically,” for “Typically,”, “(0.05 %” for “(0.05%”, “nm.” for “nm. The inhibitory activities of test compounds were determined by the IC50s.”
Background: An ELISA detects its analyte on a solid surface through an enzyme-linked reagent.

Assay [2] concerns the target T2, ICAM-1 binding to immobilized Mac-1 (Homo sapiens, UniProt P05107+P11215).
T2 construct: made in house; host or cells: transfected 293 cells (Mac-1)
As to the kind of experiment: Mac-1/ICAM-1 screening assay (solid-phase ELISA). The following applies: read-out: Mac-1/ICAM-1 Protein-Protein Assay IC50. As for the experimental part:
(b) Mac-1/ICAM-1 screening test: Mac-1/ICAM-1 antagonist activity, defined as the ability to compete with ICAM-1 binding to immobilized Mac-1, was quantitated by a solid-phase ELISA.
(§2) Membrane-bound Mac-1 derived from transfected 293 cells was coated onto 96-well microtiter plates (50 μL/well, 3 μg/mL Mac-1 in 20 mM Hepes, pH 7.2/0.14 M NaCl/1 mM MnCl2) overnight at 4° C. The plates were blocked with 100 μL/well of 0.5% BSA in 20 mM Hepes, pH 7.2/0.14 M NaCl/1 mM MnCl2 at 37° C. for 1 h and washed 3 times (120 μL each) with Binding Buffer (20 mM Hepes, pH 7.2/0.14 M NaCl/1 mM MnCl2/0.05% Tween 20). Test compounds were dissolved in 100% DMSO and diluted 1:50 in Binding Buffer plus 10% DMSO. A series of 1:4 dilutions were performed for each compound (concentration range, 0.12 nM-20 μM). Each dilution (25 μL/well) was added to the plates, followed by 25 μL/well of 5 dICAM-Ig (40 μg/mL in Binding Buffer). The plates were shaken vigorously for 1 min (room temperature), followed by gentle agitation for 2 h (37° C.), and washed with Binding Buffer (3 times, 120 μL each). HRP-conjugated goat anti-human IgG(Fc-specific) antibody (0.125 μg/mL in Binding Buffer plus 0.05% BSA) was added to each well (50 μL/well), followed by incubation for 1 h at 37° C. The plates were then washed 3 times with Binding Buffer (120 μL each). TMB solution (100 μL/well) was added to each well for color development for 10 min. The reaction was stopped with 1 M H3PO4 (100 μL/well) and the plates were read at 450 nm. The inhibitory activities of test compounds were determined by the IC50s.
as §2, with “Mac-1/ICAM-1 antagonist activity, defined as the ability to compete with ICAM-1 binding to immobilized Mac-1, was quantitated by a solid-phase ELISA. Membrane-bound” for “Membrane-bound”, “5dICAM-Ig” for “5 dICAM-Ig”, “nm.” for “nm. The inhibitory activities of test compounds were determined by the IC50s.”

T2 sequence (P05107 23-769, other chains not shown): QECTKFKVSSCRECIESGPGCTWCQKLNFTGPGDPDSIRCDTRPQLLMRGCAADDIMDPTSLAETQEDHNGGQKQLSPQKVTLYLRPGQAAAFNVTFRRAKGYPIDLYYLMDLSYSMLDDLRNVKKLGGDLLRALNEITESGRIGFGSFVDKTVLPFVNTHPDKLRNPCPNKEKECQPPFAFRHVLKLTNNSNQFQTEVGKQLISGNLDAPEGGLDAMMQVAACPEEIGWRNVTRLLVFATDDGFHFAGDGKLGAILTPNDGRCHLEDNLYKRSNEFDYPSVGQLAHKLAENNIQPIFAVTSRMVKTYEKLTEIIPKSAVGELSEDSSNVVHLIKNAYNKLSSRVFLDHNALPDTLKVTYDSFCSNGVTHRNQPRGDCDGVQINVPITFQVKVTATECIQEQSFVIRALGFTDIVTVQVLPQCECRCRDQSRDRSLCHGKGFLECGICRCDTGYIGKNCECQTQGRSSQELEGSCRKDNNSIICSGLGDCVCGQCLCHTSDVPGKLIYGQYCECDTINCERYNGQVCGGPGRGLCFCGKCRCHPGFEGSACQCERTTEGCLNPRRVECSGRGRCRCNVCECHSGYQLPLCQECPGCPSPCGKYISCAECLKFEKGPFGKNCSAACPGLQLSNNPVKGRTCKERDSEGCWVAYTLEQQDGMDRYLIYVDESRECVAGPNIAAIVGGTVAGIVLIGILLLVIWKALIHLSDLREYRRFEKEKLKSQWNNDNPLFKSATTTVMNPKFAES
T1 sequence (P20701 26-1170): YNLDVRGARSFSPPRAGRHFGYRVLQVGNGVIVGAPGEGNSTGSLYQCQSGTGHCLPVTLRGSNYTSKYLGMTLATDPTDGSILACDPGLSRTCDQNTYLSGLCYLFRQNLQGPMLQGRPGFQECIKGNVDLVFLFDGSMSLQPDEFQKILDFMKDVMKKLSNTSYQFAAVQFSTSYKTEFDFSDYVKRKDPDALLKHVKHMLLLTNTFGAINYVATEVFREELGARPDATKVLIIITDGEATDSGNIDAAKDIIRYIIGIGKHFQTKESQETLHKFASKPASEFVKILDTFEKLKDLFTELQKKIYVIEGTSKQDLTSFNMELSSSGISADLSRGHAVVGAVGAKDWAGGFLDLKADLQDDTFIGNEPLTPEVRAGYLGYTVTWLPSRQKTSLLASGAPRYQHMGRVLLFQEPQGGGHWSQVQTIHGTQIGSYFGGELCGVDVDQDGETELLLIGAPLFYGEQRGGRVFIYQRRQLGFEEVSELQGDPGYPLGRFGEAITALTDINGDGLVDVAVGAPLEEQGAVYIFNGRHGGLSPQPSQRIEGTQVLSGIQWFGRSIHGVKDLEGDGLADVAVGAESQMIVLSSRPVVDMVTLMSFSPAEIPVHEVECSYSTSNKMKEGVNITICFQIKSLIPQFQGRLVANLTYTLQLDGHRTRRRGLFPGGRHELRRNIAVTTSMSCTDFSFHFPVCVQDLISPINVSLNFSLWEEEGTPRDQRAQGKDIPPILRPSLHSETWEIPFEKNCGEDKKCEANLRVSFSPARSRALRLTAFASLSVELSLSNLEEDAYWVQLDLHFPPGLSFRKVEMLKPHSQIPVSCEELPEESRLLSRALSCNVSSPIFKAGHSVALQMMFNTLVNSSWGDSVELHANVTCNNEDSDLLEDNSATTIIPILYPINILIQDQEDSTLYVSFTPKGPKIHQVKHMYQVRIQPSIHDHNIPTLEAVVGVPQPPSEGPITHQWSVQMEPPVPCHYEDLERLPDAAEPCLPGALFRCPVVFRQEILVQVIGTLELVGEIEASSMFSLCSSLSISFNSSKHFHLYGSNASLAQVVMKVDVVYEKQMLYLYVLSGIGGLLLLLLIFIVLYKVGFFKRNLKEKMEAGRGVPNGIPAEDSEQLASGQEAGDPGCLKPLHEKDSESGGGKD
T1 sequence (P05107 23-769): as the sequence (P05107 23-769, other chains not shown) above

`COc1ccc(C(=O)NC[C@H](NC(=O)c2ccc(C(=O)NCc3cccc(O)c3)cc2Cl)C(=O)O)c(OC)n1` [Example 168]: the IC50 in assay [1] came out at 12 nM; in assay [2], 224 nM.

Turning to `O=C(NCc1cccc(O)c1)c1ccc(C(=O)N[C@@H](CNC(=O)c2nccnc2C(=O)Nc2ccc(Cl)cn2)C(=O)O)c(Cl)c1` [Example 171], the IC50 in assay [1] worked out at 1 nM; in assay [2] it was 136 nM.

On to `O=C(NCc1cccc(O)c1)c1ccc(C(=O)N[C@@H](CNC(=O)c2c[nH]c(=O)[nH]c2=O)C(=O)O)c(Cl)c1` [Example 172], for which the IC50 in assay [1] came to 7 nM; in assay [2] it was 538 nM.

For the molecule `O=C(NCc1cccc(O)c1)c1ccc(C(=O)N[C@@H](CNC(=O)c2cc(=O)[nH]c(=O)[nH]2)C(=O)O)c(Cl)c1` [Example 173], the IC50 in assay [1] came out at 0.6 nM; in assay [2], 36 nM.

Turning to `O=C(NCc1cccc(O)c1)c1ccc(C(=O)N[C@@H](CNC(=O)c2cc3ccccc3o2)C(=O)O)c(Cl)c1` [Example 174], the IC50 in assay [1] turned out to be 3.4 nM; in assay [2], 91 nM.

With `O=C(NCc1cccc(O)c1)c1ccc(C(=O)N[C@@H](CNC(=O)c2ccc3[nH]cnc3c2)C(=O)O)c(Cl)c1` [Example 176], the IC50 in assay [1] is 1.2 nM; in assay [2] it was 54 nM.

Consider `O=C(NCc1cccc(O)c1)c1ccc(C(=O)N[C@@H](CNC(=O)c2nccc3ccccc23)C(=O)O)c(Cl)c1` [Example 180], for which the values for the IC50 in assay [1] and in assay [2] were 0.6 nM and 48 nM, respectively.

For the molecule `O=C(NCc1cccc(O)c1)c1ccc(C(=O)N[C@@H](CNC(=O)c2ccc3ccccc3n2)C(=O)O)c(Cl)c1` [Example 181], the IC50 was determined as 12 nM in assay [1] and 176 nM in assay [2].

Take `O=C(NCc1cccc(O)c1)c1ccc(C(=O)N[C@@H](CNC(=O)c2ccnc3ccccc23)C(=O)O)c(Cl)c1` [Example 184]: the IC50 was 2.5 nM in assay [1] and 91 nM in assay [2].

As to `O=C(NCc1cccc(O)c1)c1ccc(C(=O)N[C@@H](CNC(=O)c2cnnc3ccccc23)C(=O)O)c(Cl)c1` [Example 185], the IC50 in assay [1] amounted to 1.3 nM; in assay [2] it was 187 nM.

For `O=C(NCc1cccc(O)c1)c1ccc(C(=O)N[C@@H](CNC(=O)c2nc3ccccc3nc2O)C(=O)O)c(Cl)c1` [Example 186], the IC50 was 1.6 nM in assay [1] and 167 nM in assay [2].

`O=C(NCc1cccc(O)c1)c1ccc(C(=O)N[C@@H](CNC(=O)c2cc3ccccc3oc2=O)C(=O)O)c(Cl)c1` [Example 188]: the IC50 in assay [1] is 3.4 nM; in assay [2], 146 nM.

For `O=C(NCc1cccc(O)c1)c1ccc(C(=O)N[C@@H](CNC(=O)c2c3ccccc3cc3ccccc23)C(=O)O)c(Cl)c1` [Example 189], the IC50 in assay [1] turned out to be 18 nM; in assay [2], 1050 nM.

With `COc1ccc2nc3ccc(C(=O)NC[C@H](NC(=O)c4ccc(C(=O)NCc5cccc(O)c5)cc4Cl)C(=O)O)cn3c(=O)c2c1` [Example 191], the IC50 in assay [1] came out at 2.2 nM; in assay [2] it was 130 nM.

For `O=C(NC[C@H](NC(=O)c1c(F)cccc1Cl)C(=O)O)c1ccccc1` [Example 220], the results for the IC50 in assay [1] and in assay [2] were 14 nM and 304 nM, respectively.

Turning to `O=C(COc1ccccc1)c1ccc(C(=O)N[C@@H](CNC(=O)c2cccs2)C(=O)O)c(Cl)c1` [Example 376, N-[2-chloro-4-(phenoxyacetyl)benzoyl]-3-(thiophene-2-carbonyl)amino-L-alanine], the results for the IC50 in assay [1] and in assay [2] were 37 nM and 152 nM, respectively.
